We go through four molecules from patent publication US20110262025A1, “Cosmetic Compositions and Methods for Maintaining and Improving Barrier Function of the Stratum Corneum and to Reduce the Visible Signs of Aging in Skin” (priority 2010, published 2011).

Where a SMILES comes first, the peptide text is derived from it. The star is where a group is joined. Cbz = O=C(OCc1ccccc1)*; CH2F = FC*

The subject of assay [1] is genes associated with SC lipid pathways, Dermaquant model keratinocytes and fibroblasts. In words: Transcriptional profiling (Affymetrix U133A plus 2) in aged-equivalent skin culture. In kind it is cell-based, human. As to conditions: 0.1% Hexamidine vs vehicle (water), 4-48 hours. As for the experimental part: The Experimental design is set forth in Table I. Cultures were treated and harvested at indicated time points. Total RNA extraction, labeling and hybridization to AffymetrixTM U133A plus 2 gene chips were conducted. Data were subjected to normalization and statistical analysis.

Another assay deals with Aquaporin 3. In words: Multiplex mRNA analysis (Panomics QuantiGene Plex) in keratinocytes. In kind it is cell-based. As to conditions: neonatal human keratinocytes, 24 hours, vs no treatment. As for the experimental part:
A multiplex mRNA analysis was conducted. RNA was isolated from neonatal human keratinocytes. Neonatal human keratinocytes (Cascade Biologics # C-001-5C) were grown to 40% confluence in 6-well tissue culture plates then treated with compounds for 24 hours (3 replicates per treatment). The treatments included several concentrations of Hexamidine, Niacinamide, and /or Pentanediol. Additionally, 0.00194% (100 μM) caffeine and no-treatment controls were performed.
Several targets were measured with Panomics QuantiGene Plex Assay kit, a multi-analyte quantitative bead-based assay. The fluorescence intensity values, measured by a Bio-Rad Bio-Plex 100 instrument, for those samples yielding sufficient RNA are shown for Aquaporin 3, CDD44 antigen, and Claudin 1. Also measured were Glyceraldehyde-3-phosphate dehydrogenase, Collagen 1α2, Filaggrin, Serine palmitoyltransferase, Interleukin 1,3-hydroxy-3methylglutaryl-coenzyme A reductase, and Interferon gamma.

The next assay has as its system cornification. As to conditions: after barrier disruption; cited from earlier work.
The test system of the next assay is Epiderm 201 cultures. In words: TEWL (evaporimeter) in epidermal cultures. In kind it is cell-based, human. The following applies: 1% Niacinamide, 24 hour treatment. The text has this:
Biomarker endpoints and certain clinical skin instrumental measurements, such as those used for skin barrier determinations, can be detected in skin equivalent cultures. As noted above, the stratum corneum barrier consists of flattened, terminally differentiated corneocytes surrounded by specialized lamellar lipids, which act to retard loss of water from the skin's surface. Water loss can be measured functionally by use of an evaporimeter instrument wherein the endpoint measured is TEWL, and is expressed in units of grams of water per skin per hour. In one validity test the present inventors took epidermal cultures from a commercial supplier (Epiderm 201 cultures from MatTek Corp., Ashland Mass.) grew them in cultures for four days whereby the number of differentiated cell layers and stratum corneum thickness was increased during this period. […] These findings indicate that in vitro epidermal constructs form a functional water barrier that can be enhanced by compounds such as Niacinamide.

On to `N=C(N)c1ccc(OCCCCCCOc2ccc(C(=N)N)cc2)cc1` [Hexamidine, 4,4′-(hexamethylenedioxy)dibenzenecarboximidamide], for which, in assay [1], the “cellular cholesterol and fatty acid uptake mechanisms” value is “up-regulation”; the “expression of gene involved in LB formation (ABCAl2)” value is “Increased expression”; the “expression of gene involved in LB secretion (ABHD5)” value was “Increased expression”; the “gene encoding rate limiting enzyme in biosynthesis of cholesterol (HMGCR)” value was “up-regulation”. In assay [1], the “gene encoding rate limiting enzyme in biosynthesis of fatty acid (ACACA)” value was “up-regulation”; the “gene encoding rate limiting enzyme in biosynthesis of sphingolipid (SPTLC1/2)” value is on record as “up-regulation”; the “mitochondrial cholesterol and fatty acid utilization pathways” value is listed as “down-regulation”; the “transcriptional activators of genes involved in lipid metabolism” value is on record as “up-regulation”. Besides, the “Aquaporin 3 expression” value in the assay with Aquaporin 3 was “upregulated”.
As for Pentanediol, in the assay with Aquaporin 3, the “Aquaporin 3 expression” value is “upregulated”.
Regarding `COC(=O)C[C@H](NC(=O)[C@H](C)NC(=O)[C@@H](NC(=O)OCc1ccccc1)C(C)C)C(=O)CF` [Z-VAD-FMK] (Cbz-Val-Ala-Asp(OMe)-CH2F), in the assay on cornification, the cornification result is recorded as “delays”.
Take `NC(=O)c1cccnc1` [Niacinamide]: the TEWL levels result with Epiderm 201 cultures is “reduced further”.
